Assay results: paper PMC9750858, “Rapid biosensor development using plant hormone receptors as reprogrammable scaffolds” (Nature Biotechnology, 2022)
Several values for one entry are separate records, joined by “and”; a condition that tells them apart may be missing. Equal entries are not always repeated.

Columns and labels:
[1] = system: PYR1-derived cannabinoid receptors (PYR1 mutants) binding HAB1; details: for cannabinoid concentration to which CB-S1 library clones respond (as low as): clones from shuffled library CB-S1; for selectivity of Y2H response of the sensor evolved for the ligand: PYR1^CBDA or PYR1^CP 47,497, all ligands tested at 25 µM
PYR1^WIN-M = biological target: T1, PYR1^WIN-M (Arabidopsis thaliana, UniProt O49686, A160I/D26G/E4G/F159A/H60P/K59Q/N90S/Y23H); test: ELISA-like plate assay, immobilized PYR1^WIN-M, biotinylated ΔN-HAB1^T+; type: binding; details: replicates
T1 construct: made in house
T1 sequence (O49686 with tags, fused parts or gaps E4G/Y23H/D26G/K59Q/H60P/N90S/F159A/A160I): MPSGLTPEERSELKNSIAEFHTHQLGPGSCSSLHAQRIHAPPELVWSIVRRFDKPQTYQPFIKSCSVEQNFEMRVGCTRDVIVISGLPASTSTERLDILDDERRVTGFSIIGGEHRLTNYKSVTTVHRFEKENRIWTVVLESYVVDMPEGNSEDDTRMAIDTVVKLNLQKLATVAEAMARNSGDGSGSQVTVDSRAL

PYR1^PIRI = biological target: T2, PYR1^PIRI (Arabidopsis thaliana, UniProt O49686, A160T/E130G/F159T/K59R/N119S/S122Q/S92M/V174A); test: Split NanoLuc luciferase complementation in yeast, NLuc^N-PYR1^PIRI/NLuc^C-HAB1; type: cell-based; details: Figure 4f(bottom), replicates
T2 construct: >PYR1-PIRI; expressed in transfected cells; host or cells: Saccharomyces cerevisiae BY4742

PYR1^DIAZI = PYR1^DIAZI (Arabidopsis thaliana, UniProt O49686, A160V/E8G/F108Y/F159G/L87M/M158V/V81Y); test: Split NanoLuc luciferase complementation in yeast, NLuc^N-PYR1^DIAZI/NLuc^C-HAB1; type: cell-based; set-up: >PYR1-DIAZI; expressed in transfected cells; host or cells: Saccharomyces cerevisiae BY4742; details: Figure 4f(top), 3 replicates
Sequence of PYR1^DIAZI (Q9CAJ0 179-511): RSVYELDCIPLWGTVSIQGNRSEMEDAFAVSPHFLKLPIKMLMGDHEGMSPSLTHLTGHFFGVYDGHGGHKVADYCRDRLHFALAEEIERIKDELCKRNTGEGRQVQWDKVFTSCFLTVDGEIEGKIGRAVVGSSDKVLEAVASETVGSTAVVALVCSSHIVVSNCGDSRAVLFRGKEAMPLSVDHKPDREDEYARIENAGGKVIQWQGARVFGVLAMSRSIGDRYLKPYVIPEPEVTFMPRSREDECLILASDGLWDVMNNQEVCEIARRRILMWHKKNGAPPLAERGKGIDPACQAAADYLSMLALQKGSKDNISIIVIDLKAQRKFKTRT
Sequence of PYR1^DIAZI (O49686 other isoform, or with tags, fused parts or gaps E8G/V81Y/L87M/F108Y/M158V/F159G/A160V): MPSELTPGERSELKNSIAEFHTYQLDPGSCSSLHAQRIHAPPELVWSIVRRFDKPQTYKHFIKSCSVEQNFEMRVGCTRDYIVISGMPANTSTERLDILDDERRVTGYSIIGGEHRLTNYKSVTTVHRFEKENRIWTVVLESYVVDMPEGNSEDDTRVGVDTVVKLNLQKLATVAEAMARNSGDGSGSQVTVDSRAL

T2 sequence (O49686 other isoform, or with tags, fused parts or gaps K59R/S92M/N119S/S122Q/E130G/F159T/A160T/V174A): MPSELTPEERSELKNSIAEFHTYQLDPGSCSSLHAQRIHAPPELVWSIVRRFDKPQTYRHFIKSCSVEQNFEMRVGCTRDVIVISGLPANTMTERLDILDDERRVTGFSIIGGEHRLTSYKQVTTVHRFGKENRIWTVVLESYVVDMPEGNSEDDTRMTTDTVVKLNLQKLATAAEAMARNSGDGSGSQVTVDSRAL
T2 sequence (Q9CAJ0 179-511, further chain): as the sequence (Q9CAJ0 179-511) above

SMILES: CCCCn1c(C)c(C(=O)c2cccc3ccccc23)c2ccccc21 [JWH-016]
- cannabinoid concentration to which CB-S1 library clones respond (as low as) [1]: 50 nM

SMILES: CCCn1cc(C(=O)c2cccc3ccccc23)c2ccccc21 [JWH-072]
- cannabinoid concentration to which CB-S1 library clones respond (as low as) [1]: 50 nM
- ELISA signal generation, receptor cross-reactivity (source data) (PYR1^WIN-M; cannabinoid at 2 nM): 0.289 and 0.097 and 0.074
- ELISA signal generation, receptor cross-reactivity (source data) (PYR1^WIN-M; cannabinoid at 2 μM): 0.219 and 0.29 and 0.268

SMILES: CCCCCCC(C)(C)c1ccc(C2CCCC(O)C2)c(O)c1 (centres unmarked) [CP 47,497, cannabicyclohexanol]
- selectivity of Y2H response of the sensor evolved for the ligand [1]: selectively responds
- ELISA signal generation, receptor cross-reactivity (source data) (PYR1^WIN-M; cannabinoid at 2 nM, 497): 0.117 and 0.142 and 0.12
- ELISA signal generation, receptor cross-reactivity (source data) (PYR1^WIN-M; cannabinoid at 2 μM, 497): 0.105 (2×) and 0.078

SMILES: C=C(C)[C@@H]1CCC(C)=C[C@H]1c1c(O)cc(CCCCC)c(C(=O)O)c1O [CBDA, cannabidiolic acid]
- selectivity of Y2H response of the sensor evolved for the ligand [1]: selectively responds

SMILES: COP(=S)(OC)Oc1ccc([N+](=O)[O-])cc1 [Parathion-methyl, parathion-methyl]
- Sensor signal (Figure 4f bottom), replicate values (PYR1^PIRI; [Agonist] 1e-5 nM): 11.8454 and 17.8157 and 9.952
- Sensor signal (Figure 4f bottom), replicate values (PYR1^PIRI; [Agonist] 0.5 nM): 11.1865 and 13.661 and 9.612
- Sensor signal (Figure 4f bottom), replicate values (PYR1^PIRI; [Agonist] 1 nM): 11.9354 and 18.4849 and 9.205
- Sensor signal (Figure 4f bottom), replicate values (PYR1^PIRI; [Agonist] 10 nM): 10.4509 and 13.1415 and 9.783
- Sensor signal (Figure 4f bottom), replicate values (PYR1^PIRI; [Agonist] 100 nM): 9.423 and 12.7271 and 15.286
- Sensor signal (Figure 4f bottom), replicate values (PYR1^PIRI; [Agonist] 1000 nM): 9.542 and 20.0758 and 23.4336
- Sensor signal (Figure 4f bottom), replicate values (PYR1^PIRI; [Agonist] 10000 nM): 13.1296 and 21.6675 and 76.706
- Sensor signal (Figure 4f bottom), replicate values (PYR1^PIRI; [Agonist] 100000 nM): 11.2909 and 29.034 and 72.4977
- Sensor signal (Figure 4f top), replicate values (PYR1^DIAZI; [Agonist] 1e-5 nM): 15.0369 and 11.1106 and 15.282
- Sensor signal (Figure 4f top), replicate values (PYR1^DIAZI; [Agonist] 0.5 nM): 71.449 and 15.1942 and 16.4674
- Sensor signal (Figure 4f top), replicate values (PYR1^DIAZI; [Agonist] 1 nM): 69.4998 and 48.0045 and 15.815
- Sensor signal (Figure 4f top), replicate values (PYR1^DIAZI; [Agonist] 10 nM): 30.1106 and 67.3607 and 15.8069
- Sensor signal (Figure 4f top), replicate values (PYR1^DIAZI; [Agonist] 100 nM): 15.5477 and 62.6829 and 17.0922
- Sensor signal (Figure 4f top), replicate values (PYR1^DIAZI; [Agonist] 1000 nM): 34.4735 and 76.5381 and 29.0859
- Sensor signal (Figure 4f top), replicate values (PYR1^DIAZI; [Agonist] 10000 nM): 73.5456 and 54.5583 and 65.8713
- Sensor signal (Figure 4f top), replicate values (PYR1^DIAZI; [Agonist] 100000 nM): 78.279 and 10.2013 and 20.8749

SMILES: CCCn1c(C)c(C(=O)c2cccc3ccccc23)c2ccccc21 [JWH-015]
- cannabinoid concentration to which CB-S1 library clones respond (as low as) [1]: 100 nM

SMILES: CCCCCn1cc(C(=O)c2cccc3ccccc23)c2ccccc21 [JWH-018]
- cannabinoid concentration to which CB-S1 library clones respond (as low as) [1]: 500 nM
